Test results as given in patent US10561703B2, “Method of modulating sex hormone levels using a sex hormone secretion modulator” (GEMVAX & KAEL CO., LTD., priority 2013, dated 2020).

System: FSH
Assay: FSH level in blood (serum CLIA) after repeated sc PEP-1
Type: in vivo, SD rats
Method: PEP-1 (peptide of SEQ ID NO: 1), lyophilized white powder, obtained according to the method mentioned in example 1 was dissolved in 0.9% of saline, considering the correction factor of PEP-1 (purity: 94.13%, content: 92.36%, correction factor: 1.15). 50 mg/mL stock solution was further diluted into 20 mg/mL, 2 mg/mL, and 1 mg/mL with 0.9% saline, and stored at 4° C. for a week until the use.
The purpose of this example is to confirm the change of sexual hormones in blood from SD rats with 7 days repeated daily administration of SEQ ID NO: 1 peptide, PEP-1. This experiment followed the Ethics Regulation of Animal Test by KAMSI Inc. (Korea Animal Medical Science Institute). In addition, this experiment, Non-GLP experiment, referred to the MFDS (Ministry of Food and Drug Safety) notification; Agent 2013-40 (5th April 2013), Principles of Good Laboratory Practice (1997).
SPF Rats (Crlj:CD(SD)) were purchased from ORIENTBio Inc. (Mokdong-ri, Buk-myeon, Gapyeong-gun, Gyeonggi-do, Republic of Korea). 75 male (6.5 weeks old and 190˜210 g) and 75 female (6.5 weeks old and 160˜180 g) rats were monitored for 4 days, and 64 of male and female rats (each) were selected for the experiment. Raising condition is as follows; 23±3° C. of temperature, […] of relative humidity, 10˜20 times/hr of number of air changes, 12 hours (8 a.m.˜8 p.m.) of lighting with 150˜300 Lux of intensity.
64 male and female […] (mentioned above) were divided into 8 groups. Administration regimen, for example, drugs, routes, dosages, and volumes were as follows:
The detailed administration regimen is as follows; once a day, twice a day and twice a week in each experimental group. Injection initiated at 10 a.m. every day, and each rat was injected at one minute intervals. Rats in Group 9, 10, 13 and 14 were injected twice a week. Administration of high dose test agent preceded that of low dose. The volume of injection was calculated using recently measured weight of rats, and it was 5 mL/kg. Subcutaneous injection was performed as follows; assistant tilted the back of rat upward, and experimenter sterilized the back of rat with 70% alcohol, followed by subcutaneous injection of test agent with 26 G syringe.
1.4 mL of blood sample (0.7 mL of serum) was collected after measurement of weight (Day 0). Next day (1 Day), 1.4 mL of blood sample (0.7 mL of serum) was collected twice after injection of test agent (4 hrs and 8 hrs after administration of test agent). For next 6 days (Day 2˜Day 7), 1.4 mL of blood was extracted once everyday (4 hours after injection of test agent). Dose and volume of test agent of each group followed the Table 3, and injection time zone was same every day. Blood was extracted from the jugular vein, and left at room temperature for 30 minutes. Serum was separated using centrifugation (10,000 rpm for 5 minutes), and stored at −70±5° C. in Deep freezer until the use. Blood extraction from each subject was done in the same time zone every day.
A CLIA (Chemi-Luminescence Immune Assay) Kit was used to analyze Testosterone, Estradiol E2, FSH (Follicle stimulating hormone), and LH (Luteinizing hormone). Analysis was completed within 48 hrs after blood extraction (Laboratory Medicine Department, Chung-Ang University Hospital), and detailed method is as follows; One-way ANOVA was used to verify the comparison between the vehicle and PEP-1, and between different doses of PEP-1. For further analysis, Duncan test was used as parametric test and Dunnett's test as non-parametric test. p<0.05 represents the statistical significance, and all statistical analysis was carried out with SPSS 10.1.
FSH was analyzed using the samples prepared from example 2. 100 μL of serum was used for analysis. Fundamentals of analysis is Two-site sandwich immunoassay based on direct chemi-luminescent. As mentioned in example 2, CLIA (Chemi-luminescence immune assay) Kit was used, following the manufacture's protocol.

EARPALLTSRLRFIPK (listed as Homo sapiens) [PEP-1, hormone secretion modulator / GnRH analog]
FSH level in blood (G11 Male 100 mg/kg sc 1/day x7, 4 days): 0.23 mIU/mL | FSH level in blood (G11 Male 100 mg/kg sc 1/day x7, 5 days): 0.21 mIU/mL | FSH level in blood (G11 Male 100 mg/kg sc 1/day x7, 6 days): 0.12 mIU/mL | FSH level in blood (G11 Male 100 mg/kg sc 1/day x7, 7 days): 0.15 mIU/mL | FSH level in blood (G11 Male 100 mg/kg sc 1/day x7, pre): 0.17 mIU/mL | FSH level in blood (G12 Female 100 mg/kg sc 1/day x7, 4 hr): 0.23 mIU/mL | FSH level in blood (G12 Female 100 mg/kg sc 1/day x7, 8 hr): 0.25 mIU/mL | FSH level in blood (G12 Female 100 mg/kg sc 1/day x7, 2 days): 0.28 mIU/mL | FSH level in blood (G12 Female 100 mg/kg sc 1/day x7, 3 days): 0.19 mIU/mL | FSH level in blood (G12 Female 100 mg/kg sc 1/day x7, 4 days): 0.15 mIU/mL | FSH level in blood (G12 Female 100 mg/kg sc 1/day x7, 5 days): 0.21 mIU/mL | FSH level in blood (G12 Female 100 mg/kg sc 1/day x7, 6 days): 0.1 mIU/mL | FSH level in blood (G12 Female 100 mg/kg sc 1/day x7, 7 days): 0.12 mIU/mL | FSH level in blood (G12 Female 100 mg/kg sc 1/day x7, pre): 0.21 mIU/mL | FSH level in blood (G13 Male 100 mg/kg sc 2/week x2 (days 1,7), 4 hr): 0.21 mIU/mL | FSH level in blood (G13 Male 100 mg/kg sc 2/week x2 (days 1,7), 8 hr): 0.23 mIU/mL | FSH level in blood (G13 Male 100 mg/kg sc 2/week x2 (days 1,7), 2 days): 0.24 mIU/mL | FSH level in blood (G13 Male 100 mg/kg sc 2/week x2 (days 1,7), 3 days): 0.19 mIU/mL | FSH level in blood (G13 Male 100 mg/kg sc 2/week x2 (days 1,7), 4 days): 0.26 mIU/mL | FSH level in blood (G13 Male 100 mg/kg sc 2/week x2 (days 1,7), 5 days): 0.37 mIU/mL | FSH level in blood (G13 Male 100 mg/kg sc 2/week x2 (days 1,7), 6 days): 0.19 mIU/mL | FSH level in blood (G13 Male 100 mg/kg sc 2/week x2 (days 1,7), 7 days): 0.14 mIU/mL | FSH level in blood (G13 Male 100 mg/kg sc 2/week x2 (days 1,7), pre): 0.38 mIU/mL | FSH level in blood (G14 Female 100 mg/kg sc 2/week x2 (days 1,7), 4 hr): 0.48 mIU/mL | FSH level in blood (G14 Female 100 mg/kg sc 2/week x2 (days 1,7), 8 hr): 0.4 mIU/mL | FSH level in blood (G14 Female 100 mg/kg sc 2/week x2 (days 1,7), 2 days): 0.23 mIU/mL | FSH level in blood (G14 Female 100 mg/kg sc 2/week x2 (days 1,7), 3 days): 0.17 mIU/mL | FSH level in blood (G14 Female 100 mg/kg sc 2/week x2 (days 1,7), 4 days): 0.14 mIU/mL | FSH level in blood (G14 Female 100 mg/kg sc 2/week x2 (days 1,7), 5 days): 0.24 mIU/mL | FSH level in blood (G14 Female 100 mg/kg sc 2/week x2 (days 1,7), 6 days): 0.17 mIU/mL | FSH level in blood (G14 Female 100 mg/kg sc 2/week x2 (days 1,7), 7 days): 0.22 mIU/mL | FSH level in blood (G14 Female 100 mg/kg sc 2/week x2 (days 1,7), pre): 0.17 mIU/mL | FSH level in blood (G15 Male 250 mg/kg sc 1/day x7, 4 hr): 0.26 mIU/mL | FSH level in blood (G15 Male 250 mg/kg sc 1/day x7, 8 hr): 0.35 mIU/mL | FSH level in blood (G15 Male 250 mg/kg sc 1/day x7, 2 days): 0.44 mIU/mL | FSH level in blood (G15 Male 250 mg/kg sc 1/day x7, 3 days): 0.12 mIU/mL | FSH level in blood (G15 Male 250 mg/kg sc 1/day x7, 4 days): 0.23 mIU/mL | FSH level in blood (G15 Male 250 mg/kg sc 1/day x7, 5 days): 0.25 mIU/mL | FSH level in blood (G15 Male 250 mg/kg sc 1/day x7, 6 days): 0.1 mIU/mL | FSH level in blood (G15 Male 250 mg/kg sc 1/day x7, 7 days): 0.12 mIU/mL | FSH level in blood (G15 Male 250 mg/kg sc 1/day x7, pre): 0.38 mIU/mL | FSH level in blood (G16 Female 250 mg/kg sc 1/day x7, 4 hr): 0.27 mIU/mL | FSH level in blood (G16 Female 250 mg/kg sc 1/day x7, 8 hr): 0.3 mIU/mL | FSH level in blood (G16 Female 250 mg/kg sc 1/day x7, 2 days): 0.34 mIU/mL | FSH level in blood (G16 Female 250 mg/kg sc 1/day x7, 3 days): 0.20 mIU/mL | FSH level in blood (G16 Female 250 mg/kg sc 1/day x7, 4 days): 0.12 mIU/mL | FSH level in blood (G16 Female 250 mg/kg sc 1/day x7, 5 days): 0.19 mIU/mL | FSH level in blood (G16 Female 250 mg/kg sc 1/day x7, 6 days): 0.18 mIU/mL | FSH level in blood (G16 Female 250 mg/kg sc 1/day x7, 7 days): 0.08 mIU/mL | FSH level in blood (G16 Female 250 mg/kg sc 1/day x7, pre): 0.19 mIU/mL | Change in FSH level compared to baseline (male and female, Day 1, 4 hr and 8 hr post injection, in particular high doses (G11 to G16)): slight increase
